Laboratory results published in patent US11434205B2, “Substituted imidazole carboxylate derivatives and the use thereof” (priority 2018, dated 2022).
Where two headings read alike, the source gives them in different places.

Key:
rats [1] = assay: Loss of righting reflexes (LORR) assay in rats, ED50 by up and down method; type: in vivo, rat; conditions: Rattus norvegicus, tail vein, class symbols
In short: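 Adult male Sprague-Dawley rats (250-300 g) dosed i.v. via tail vein at 0.1 mL/s. Anesthesia scored as loss of righting reflex lasting >30 s; ED50 derived by up-and-down method.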

rats [2] = test system: rats
Method: Adult male Sprague-Dawley rats (250-300 g) were selected for the experiment. […] The anesthesia effects of the compounds were assessed in rats using a LORR assay and a period >30 s was considered as an indicator of general anesthesia. Then the up and down method was used to determine 50% effective dose (ED50). The drugs were administered through the tail vein of rats in a volume of 0.6 mL and at a rate of 0.1 mL/s.

rats [3] = assay: Pharmacological characteristics at equivalent doses (2×ED50) in rats; conditions: 2×ED50, tail vein; for Adverse reactions: Red urine (incidence): DMSO solution (DMSO alone 10/10); for Adverse reactions: Tremor (incidence): animals affected/animals; for Onset time: time of LORR
In short: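 Adult male Sprague-Dawley rats (250-300 g, n=8) received each drug at twice its ED50 via tail vein (0.6 mL at 0.1 mL/s). Onset of anesthesia taken as time to LORR.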

[4] = test system: secretion of corticosterone, H295R cell line; assay: cells; type: cell-based; conditions: for EC50: Homo sapiens, NCI-H295R, read-out: EC50 (Corticosterone)
Method: (§1) The Effects of the Compounds on Adrenocortical Function In Vitro Test
(§2) Then secretion of the cortisol and corticosterone in the supernatant, was measured using HPLC-MS/MS method to determine whether the compounds of the present invention had adrenotoxic potential.

[5] = test system: secretion of cortisol, H295R cell line; assay: cells; type: cell-based; conditions: for EC50: Homo sapiens, NCI-H295R, read-out: EC50 (Cortisol)
Method: as §1, §2

rats [6] = type: in vivo, rat; conditions: rats of the MAP/HR figures, 2×ED50, tail vein; same value in min
In short: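 Rats implanted with telemetry (left ventricular and abdominal aortic catheters, ECG leads) at least one week before recording; compounds given via lateral tail-vein catheter. MAP and HR sampled every 15 s for 30 min before and after dosing to judge hemodynamic stability.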

rats [7] = test system: rats; remark: listed apart in the source
Method: Pharmacological Effects of the Compounds on Continuous Infusion in Rats
Adult male Sprague-Dawley rats with body weight ranging from 250 to 300 gm were selected for continuous infusion test. […] Time to recovery of righting reflex from stopping infusion, and time to fully awake from stopping infusion were recorded.

rats [8] = type: in vivo, rat; conditions: rats of the MAP/HR figures, 2×ED50, tail vein
[9] = H295R cell line, 0.1-10000 nM, HPLC-MS/MS, Table E3
[10] = continuous tail vein infusion at 2×MIR, LORR maintained 1 hour, Table E4
[11] = H295R cell line, 0.1-10000 nM, HPLC-MS/MS, Table D3
[12] = continuous tail vein infusion at 2×MIR, LORR maintained 1 hour, Table D4
[13] = continuous tail vein infusion at 2×MIR, LORR maintained 1 hour, Table C4

Row | Structure (SMILES) | ED50 (rats [1]) [mg/kg] | Approximate therapeutic index (rats [2]) | Minimal lethal dose (rats [2]) [mg/kg] | Righting reflex duration (rats [3]) [min] | Adverse reactions: Red urine (incidence) (rats [3]) | Adverse reactions: Tremor (incidence) (rats [3]) | Onset time (rats [3]) [min] | EC50 [4] [nM] | EC50 [5] [nM] | recovery time of the test animals' righting reflex (rats [6]) [min] | recovery time of the test animals' righting reflex (rats [8]) [s] | Corticosterone as an indicator to determine the presence of inhibition [4, 11] | Cortisol as an indicator to determine the presence of inhibition [5, 11] | Onset time (rats [7]; [12]) [min] | Recovery time after stopping infusion (rats [7]; [12]) [min] | Corticosterone as an indicator to determine the presence of inhibition ([4]; H295R, Table C3) | Cortisol as an indicator to determine the presence of inhibition ([5]; H295R, Table C3) | Onset time (rats [7]; [13]) [min] | Recovery time after stopping infusion (rats [7]; [13]) [min] | also measured
1 | CC(=O)C(C)(C)OC(=O)c1c(F)ncn1[C@H](C)c1ccccc1 [Compound E6] | 0.5 to 1 | >24 | >10 | 2.73 ± 1.08 | urine (8/8) | (1/8), Red | 0.13 ± 0.04 | > 10000 | > 10000 | 2.90 | 174 | – | – | – | – | – | – | – | – | Corticosterone as an indicator to determine the presence of inhibition [4, 9]: 0; Cortisol as an indicator to determine the presence of inhibition [5, 9]: 0; Onset time (rats [7]; [10]): 2 to 3 min; Recovery time after stopping infusion (rats [7]; [10]): 9 to 11 min; Types and incidence of adverse reactions (rats [7]; [10]): Tremor (4/6)
2 | CCC#CC(C)OC(=O)c1cncn1[C@H](C)c1ccccc1 (stereo partly shown) [Compound D36] | 0.1 to 0.5 | >15 | >4 | 2.63 ± 1.78 | Red urine (8/8) | – | 0.31 ± 0.14 | > 1000 | > 1000 | 2.38 | 143 | 0 | 0 | 3 to 4 | 12 to 17 | – | – | – | – | Adverse reactions: Hindlimb rigidity (incidence) (rats [3]): Hindlimb rigidity (2/8),; Adverse reactions: Tongue stretching (incidence) (rats [3]): Tongue stretching (4/8),
3 | CC#CCOC(=O)c1c(F)ncn1[C@H](C)c1ccccc1 [Compound E35] | 0.1 to 0.5 | >17 | >4 | 2.30 ± 0.80 | urine (8/8) | (4/8), Red | 0.32 ± 0.11 | > 10000 | > 10000 | 2.52 | 151 | – | – | – | – | – | – | – | – | Corticosterone as an indicator to determine the presence of inhibition [4, 9]: 0; Cortisol as an indicator to determine the presence of inhibition [5, 9]: 0; Onset time (rats [7]; [10]): 2 to 3 min; Recovery time after stopping infusion (rats [7]; [10]): 10 to 13 min; Types and incidence of adverse reactions (rats [7]; [10]): Tongue stretching (2/6), Tremor (3/6)
4 | C[C@H](c1ccccc1)n1cncc1C(=O)OCCC1CCC1 [Compound A18] | 0.1 to 0.5 | >22 | >5 | 4.77 ± 1.73 | Red urine (8/8) | – | 0.20 ± 0.09 | > 1000 | > 1000 | 4.55 | 273 | – | – | – | – | – | – | – | – | Corticosterone as an indicator to determine the presence of inhibition ([4]; H295R, Table A3): 0; Cortisol as an indicator to determine the presence of inhibition ([5]; H295R, Table A3): 0; Recovery time after stopping infusion (rats [7]; after 1 hour infusion at 2×MIR): 11 to 15 min; Adverse reactions: Tremor (incidence) (rats [7]; continuous infusion 2×MIR): Tremor (5/6); Onset time (rats [7]; emulsion, continuous infusion at 2×MIR): 3 to 4 min
5 | CC(=O)CCOC(=O)c1cncn1[C@H](C)c1ccccc1 [Compound C7] | 0.1 to 0.5 | >10 | >4 | 1.68 ± 0.88 | Red urine (8/8) | – | 0.15 ± 0.06 | > 1000 | > 1000 | 1.87 | 112 | – | – | – | – | 0 | 0 | 3 to 4 | 8 to 14 | Adverse reactions: Muscle twitching (incidence) (rats [3]): Muscle twitching (4/8),; Types and incidence of adverse reactions (rats [7]; [13]): Tremor (6/6)
6 | C#CC(C)(C)OC(=O)c1cncn1[C@H](C)c1ccccc1 [Compound D15] | 0.1 to 0.5 | >10 | >4 | 2.25 ± 0.79 | (7/8) | Tremor (2/8), Red urine | 0.21 ± 0.10 | > 10000 | > 10000 | 3.75 | 225 | 0 | 0 | 2 to 3 | 10 to 11 | – | – | – | – | Types and incidence of adverse reactions (rats [7]; [12]): Tremor (3/6)
7 | C=C=CC1(OC(=O)c2cncn2[C@H](C)c2ccccc2)COC1 [Compound D21] | 0.01 to 0.1 | >16 | >1 | 1.93 ± 0.95 | Red urine (8/8) | – | 0.15 ± 0.05 | > 1000 | > 1000 | 6.0 | 360 | 0 | 0 | 2 to 3 | 8 to 9 | – | – | – | – | Adverse reactions: Hindlimb rigidity (incidence) (rats [3]): Hindlimb rigidity (2/8),; Types and incidence of adverse reactions (rats [7]; [12]): Tremor (4/6), Myoclonus (1/6)
8 | CCCC(CCC)OC(=O)c1cncn1[C@H](C)c1ccccc1 [Compound C20] | 0.1 to 0.5 | >16 | >7 | 3.59 ± 2.63 | (8/8) | Tremor (2/8), Red urine | 0.43 ± 0.07 | > 10000 | > 10000 | 4.05 | 243 | – | – | – | – | 0 | 0 | 3 to 4 | 8 to 15 | Types and incidence of adverse reactions (rats [7]; [13]): Tremor (3/6), Myoclonus (1/6)
9 | C=CC#CC(C)(C)OC(=O)c1cncn1[C@H](C)c1ccccc1 [Compound D37] | 0.5 to 1 | >13 | >10 | 3.09 ± 2.03 | Red urine (8/8) | – | 0.24 ± 0.11 | > 1000 | > 1000 | 2.75 | 165 | 0 | 0 | 2 to 3 | 12 to 18 | – | – | – | – | Types and incidence of adverse reactions (rats [7]; [12]): Tremor (4/6)
10 | CSCCOC(=O)c1cncn1[C@H](C)c1ccccc1 [Compound C27] | 0.5 to 1 | >11 | >9 | 3.06 ± 1.50 | Red urine (8/8) | – | 0.12 ± 0.07 | > 1000 | > 1000 | 3.1 | 186 | – | – | – | – | 0 | 0 | 3 to 4 | 10 to 11 | Types and incidence of adverse reactions (rats [7]; [13]): Tremor (2/6)
11 | CCCCC(CCCC)OC(=O)c1cncn1[C@H](C)c1ccccc1 [Compound C25] | 0.1 to 0.5 | >10 | >4 | 2.03 ± 1.32 | (8/8) | Tremor (6/8), Red urine | 0.72 ± 0.20 | > 1000 | > 1000 | 2.08 | 125 | – | – | – | – | 0 | 0 | 3 to 4 | 12 to 15 | –
